Assay results reported in ChEMBL document CHEMBL3991601, “The target landscape of clinical kinase drugs” (Science, 2017).
Calls of active or inactive are those of the source. Cut-off read from the data, not from the text of the source, for most assays here: actives have a measured Kd and inactives only a lower limit.

Legend:
Activin receptor type-2B = Activin receptor type-2B (Homo sapiens, UniProt Q13705)
[1] = biological target: RAC-alpha serine/threonine-protein kinase (Homo sapiens, UniProt P31749)
[2] = biological target: T1, Adenine phosphoribosyltransferase (Homo sapiens, UniProt P07741)
T1 sequence (P07741 whole entry): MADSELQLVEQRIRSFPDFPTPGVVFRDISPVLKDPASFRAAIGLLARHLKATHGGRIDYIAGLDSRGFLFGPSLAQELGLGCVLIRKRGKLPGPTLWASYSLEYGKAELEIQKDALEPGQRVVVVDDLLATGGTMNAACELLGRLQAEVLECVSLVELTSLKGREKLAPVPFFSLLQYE

[3] = biological target: Calcium/calmodulin-dependent protein kinase type II subunit gamma (Homo sapiens, UniProt Q13555)
[4] = biological target: Cyclin-dependent kinase 2 (Homo sapiens, UniProt P24941)
[5] = biological target: Cyclin-dependent kinase 4 (Homo sapiens, UniProt P11802)
[6] = biological target: Cyclin-dependent kinase 5 (Homo sapiens, UniProt Q00535)
[7] = biological target: Citron Rho-interacting kinase (Homo sapiens, UniProt O14578)
[8] = biological target: Tyrosine-protein kinase CSK (Homo sapiens, UniProt P41240)
[9] = biological target: Casein kinase I isoform delta (Homo sapiens, UniProt P48730)
[10] = biological target: Glycogen synthase kinase-3 beta (Homo sapiens, UniProt P49841)
GTP-binding protein 4 = GTP-binding protein 4 (Homo sapiens, UniProt Q9BZE4)
LIM domain kinase 1 = LIM domain kinase 1 (Homo sapiens, UniProt P53667)
[11] = biological target: Mitogen-activated protein kinase kinase kinase kinase 1 (Homo sapiens, UniProt Q92918)
[12] = biological target: T2, Mitogen-activated protein kinase 15 (Homo sapiens, UniProt Q8TD08)
T2 sequence (Q8TD08 whole entry): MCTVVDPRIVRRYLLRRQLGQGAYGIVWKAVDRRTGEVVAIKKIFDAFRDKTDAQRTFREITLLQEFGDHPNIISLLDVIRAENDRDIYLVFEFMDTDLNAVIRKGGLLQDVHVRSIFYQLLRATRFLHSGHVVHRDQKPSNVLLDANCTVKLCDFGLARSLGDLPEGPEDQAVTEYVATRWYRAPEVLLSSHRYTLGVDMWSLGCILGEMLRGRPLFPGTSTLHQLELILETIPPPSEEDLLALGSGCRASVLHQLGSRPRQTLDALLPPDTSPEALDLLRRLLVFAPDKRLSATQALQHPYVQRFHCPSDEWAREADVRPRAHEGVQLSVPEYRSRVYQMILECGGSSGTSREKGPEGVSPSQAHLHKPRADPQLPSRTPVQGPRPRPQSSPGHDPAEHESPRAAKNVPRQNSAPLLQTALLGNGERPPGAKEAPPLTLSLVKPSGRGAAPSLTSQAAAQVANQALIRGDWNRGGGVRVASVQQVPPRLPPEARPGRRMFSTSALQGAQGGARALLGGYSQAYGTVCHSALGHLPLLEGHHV

[13] = biological target: PAS domain-containing serine/threonine-protein kinase (Homo sapiens, UniProt Q96RG2)
[14] = biological target: Membrane-associated progesterone receptor component 1 (Homo sapiens, UniProt O00264)
[15] = biological target: T3, Serine/threonine-protein kinase PLK4 (Homo sapiens, UniProt O00444)
T3 sequence (O00444 whole entry): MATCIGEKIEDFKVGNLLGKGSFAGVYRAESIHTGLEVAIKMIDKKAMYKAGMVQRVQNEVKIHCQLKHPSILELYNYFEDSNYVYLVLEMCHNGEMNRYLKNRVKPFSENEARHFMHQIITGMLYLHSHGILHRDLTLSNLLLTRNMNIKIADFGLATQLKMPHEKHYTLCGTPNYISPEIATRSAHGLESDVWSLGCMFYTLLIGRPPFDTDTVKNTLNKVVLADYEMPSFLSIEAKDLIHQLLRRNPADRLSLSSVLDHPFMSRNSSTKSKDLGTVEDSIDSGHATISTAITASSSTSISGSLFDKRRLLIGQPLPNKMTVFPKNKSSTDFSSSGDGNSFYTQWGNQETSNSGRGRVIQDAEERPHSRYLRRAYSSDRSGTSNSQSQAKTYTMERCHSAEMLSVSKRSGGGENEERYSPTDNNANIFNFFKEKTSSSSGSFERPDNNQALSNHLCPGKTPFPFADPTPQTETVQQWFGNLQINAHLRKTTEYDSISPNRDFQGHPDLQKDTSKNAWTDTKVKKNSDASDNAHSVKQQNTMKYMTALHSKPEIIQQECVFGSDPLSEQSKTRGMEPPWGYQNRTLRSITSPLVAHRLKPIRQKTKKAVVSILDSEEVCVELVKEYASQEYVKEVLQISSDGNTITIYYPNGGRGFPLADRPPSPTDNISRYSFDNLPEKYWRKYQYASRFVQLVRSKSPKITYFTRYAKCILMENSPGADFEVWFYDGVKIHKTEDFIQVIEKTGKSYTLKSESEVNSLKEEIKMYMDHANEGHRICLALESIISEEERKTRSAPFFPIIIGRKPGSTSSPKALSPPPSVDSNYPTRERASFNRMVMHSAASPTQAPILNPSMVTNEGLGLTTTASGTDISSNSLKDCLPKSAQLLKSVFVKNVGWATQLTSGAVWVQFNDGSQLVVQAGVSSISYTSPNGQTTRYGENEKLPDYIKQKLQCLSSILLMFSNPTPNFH

[16] = biological target: Ras-related protein Rab-6A (Homo sapiens, UniProt P20340)
[17] = biological target: GTP-binding nuclear protein Ran (Homo sapiens, UniProt P62826)
Note: in the data inactive means no Kd found up to 30 µM.

Sequence of PAS domain-containing serine/threonine-protein kinase (Q96RG2 whole entry, the tested form may be a part): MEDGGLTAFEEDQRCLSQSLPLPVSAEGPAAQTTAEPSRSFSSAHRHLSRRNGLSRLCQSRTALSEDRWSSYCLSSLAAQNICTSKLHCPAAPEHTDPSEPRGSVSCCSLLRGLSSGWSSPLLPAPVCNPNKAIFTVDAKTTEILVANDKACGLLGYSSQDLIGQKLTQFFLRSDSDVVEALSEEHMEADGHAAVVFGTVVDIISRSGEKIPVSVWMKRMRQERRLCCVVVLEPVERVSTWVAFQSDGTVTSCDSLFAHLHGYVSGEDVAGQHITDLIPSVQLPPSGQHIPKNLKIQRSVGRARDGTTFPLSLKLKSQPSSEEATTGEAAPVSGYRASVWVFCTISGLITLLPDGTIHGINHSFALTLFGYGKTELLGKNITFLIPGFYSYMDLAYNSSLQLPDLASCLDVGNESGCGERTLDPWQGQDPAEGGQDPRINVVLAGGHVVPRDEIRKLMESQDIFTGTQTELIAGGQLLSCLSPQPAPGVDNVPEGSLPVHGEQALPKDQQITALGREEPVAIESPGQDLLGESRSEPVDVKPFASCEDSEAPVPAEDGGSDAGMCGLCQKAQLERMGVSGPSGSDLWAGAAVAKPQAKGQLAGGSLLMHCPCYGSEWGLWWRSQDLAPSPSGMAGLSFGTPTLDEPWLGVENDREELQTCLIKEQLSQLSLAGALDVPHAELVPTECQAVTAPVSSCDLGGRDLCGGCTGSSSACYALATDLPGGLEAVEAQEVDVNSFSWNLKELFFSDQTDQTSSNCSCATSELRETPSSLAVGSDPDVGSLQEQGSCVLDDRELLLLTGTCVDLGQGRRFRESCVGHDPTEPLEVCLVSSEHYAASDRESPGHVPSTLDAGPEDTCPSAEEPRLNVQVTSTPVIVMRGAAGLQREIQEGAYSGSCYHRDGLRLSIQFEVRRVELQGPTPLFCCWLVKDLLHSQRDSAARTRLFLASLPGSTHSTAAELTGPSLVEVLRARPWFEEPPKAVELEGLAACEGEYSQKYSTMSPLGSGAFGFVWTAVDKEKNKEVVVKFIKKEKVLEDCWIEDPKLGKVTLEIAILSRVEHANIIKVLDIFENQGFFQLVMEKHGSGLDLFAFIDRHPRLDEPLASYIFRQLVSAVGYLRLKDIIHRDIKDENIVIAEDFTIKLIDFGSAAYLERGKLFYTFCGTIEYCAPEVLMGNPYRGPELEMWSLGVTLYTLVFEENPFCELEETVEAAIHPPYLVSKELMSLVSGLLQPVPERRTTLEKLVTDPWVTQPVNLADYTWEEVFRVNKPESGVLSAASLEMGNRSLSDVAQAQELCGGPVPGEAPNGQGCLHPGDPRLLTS
Sequence of Calcium/calmodulin-dependent protein kinase type II subunit gamma (Q13555 whole entry): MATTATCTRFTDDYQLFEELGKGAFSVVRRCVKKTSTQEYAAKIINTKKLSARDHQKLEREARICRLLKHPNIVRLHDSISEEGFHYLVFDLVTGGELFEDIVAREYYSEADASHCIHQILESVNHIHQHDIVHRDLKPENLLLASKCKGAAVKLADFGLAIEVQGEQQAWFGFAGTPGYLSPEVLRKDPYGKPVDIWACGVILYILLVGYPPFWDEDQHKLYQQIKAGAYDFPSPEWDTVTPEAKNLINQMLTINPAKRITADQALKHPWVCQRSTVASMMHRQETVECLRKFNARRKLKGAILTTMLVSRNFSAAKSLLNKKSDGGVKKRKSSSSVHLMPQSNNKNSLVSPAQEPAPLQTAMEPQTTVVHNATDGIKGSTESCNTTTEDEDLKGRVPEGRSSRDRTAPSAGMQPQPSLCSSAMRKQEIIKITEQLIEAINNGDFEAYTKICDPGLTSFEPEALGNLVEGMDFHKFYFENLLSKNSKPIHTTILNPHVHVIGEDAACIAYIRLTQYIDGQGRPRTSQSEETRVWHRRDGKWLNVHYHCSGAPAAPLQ
Sequence of Casein kinase I isoform delta (P48730 whole entry, canonical isoform): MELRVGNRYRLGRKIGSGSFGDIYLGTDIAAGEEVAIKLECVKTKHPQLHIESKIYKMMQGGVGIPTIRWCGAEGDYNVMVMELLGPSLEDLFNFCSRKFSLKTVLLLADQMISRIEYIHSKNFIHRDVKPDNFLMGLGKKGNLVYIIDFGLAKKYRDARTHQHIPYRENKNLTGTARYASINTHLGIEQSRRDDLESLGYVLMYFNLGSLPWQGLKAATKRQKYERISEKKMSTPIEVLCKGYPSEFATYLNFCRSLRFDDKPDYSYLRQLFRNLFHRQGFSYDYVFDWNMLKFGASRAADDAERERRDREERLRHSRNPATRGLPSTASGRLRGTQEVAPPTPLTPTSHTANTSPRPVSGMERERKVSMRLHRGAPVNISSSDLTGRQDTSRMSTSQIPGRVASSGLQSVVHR
Sequence of Mitogen-activated protein kinase kinase kinase kinase 1 (Q92918 whole entry): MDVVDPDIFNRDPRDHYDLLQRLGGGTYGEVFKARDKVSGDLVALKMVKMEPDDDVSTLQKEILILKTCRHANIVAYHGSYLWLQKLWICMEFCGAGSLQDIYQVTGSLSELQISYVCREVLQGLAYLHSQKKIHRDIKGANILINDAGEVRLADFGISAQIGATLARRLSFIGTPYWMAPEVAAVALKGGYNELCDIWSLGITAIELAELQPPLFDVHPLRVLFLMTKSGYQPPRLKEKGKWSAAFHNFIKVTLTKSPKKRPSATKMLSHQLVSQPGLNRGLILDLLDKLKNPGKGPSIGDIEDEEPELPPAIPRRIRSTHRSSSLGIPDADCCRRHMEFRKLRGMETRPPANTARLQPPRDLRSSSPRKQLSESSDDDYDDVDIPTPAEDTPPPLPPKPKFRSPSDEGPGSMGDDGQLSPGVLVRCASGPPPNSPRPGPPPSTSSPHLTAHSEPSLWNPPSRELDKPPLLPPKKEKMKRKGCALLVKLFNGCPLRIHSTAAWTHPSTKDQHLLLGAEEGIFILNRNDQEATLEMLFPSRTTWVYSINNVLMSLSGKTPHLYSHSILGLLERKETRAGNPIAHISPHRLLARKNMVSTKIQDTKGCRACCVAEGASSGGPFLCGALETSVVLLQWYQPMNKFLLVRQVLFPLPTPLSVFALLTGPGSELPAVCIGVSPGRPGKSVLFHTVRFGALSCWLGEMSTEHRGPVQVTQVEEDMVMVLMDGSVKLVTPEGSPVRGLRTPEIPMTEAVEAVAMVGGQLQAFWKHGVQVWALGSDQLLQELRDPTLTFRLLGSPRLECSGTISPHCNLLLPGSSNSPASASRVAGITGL
Sequence of LIM domain kinase 1 (P53667 whole entry, the tested form may be a part): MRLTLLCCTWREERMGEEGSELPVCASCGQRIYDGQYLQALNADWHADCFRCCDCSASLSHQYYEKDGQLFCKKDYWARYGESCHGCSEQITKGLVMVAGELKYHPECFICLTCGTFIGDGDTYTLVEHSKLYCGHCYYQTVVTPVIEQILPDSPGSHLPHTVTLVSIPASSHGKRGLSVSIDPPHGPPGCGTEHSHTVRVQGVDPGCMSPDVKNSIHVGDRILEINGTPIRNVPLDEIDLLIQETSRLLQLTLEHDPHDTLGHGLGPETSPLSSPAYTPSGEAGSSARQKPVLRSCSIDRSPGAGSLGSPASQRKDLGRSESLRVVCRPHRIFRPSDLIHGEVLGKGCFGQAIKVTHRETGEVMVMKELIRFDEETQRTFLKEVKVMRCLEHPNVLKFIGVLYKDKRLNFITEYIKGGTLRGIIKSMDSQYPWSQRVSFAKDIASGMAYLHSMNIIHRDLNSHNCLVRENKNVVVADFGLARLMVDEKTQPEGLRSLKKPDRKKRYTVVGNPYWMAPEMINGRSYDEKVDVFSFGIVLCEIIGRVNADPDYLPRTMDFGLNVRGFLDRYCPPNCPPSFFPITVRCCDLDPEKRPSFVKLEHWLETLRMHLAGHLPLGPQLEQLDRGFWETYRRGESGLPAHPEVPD
Sequence of Ras-related protein Rab-6A (P20340 whole entry): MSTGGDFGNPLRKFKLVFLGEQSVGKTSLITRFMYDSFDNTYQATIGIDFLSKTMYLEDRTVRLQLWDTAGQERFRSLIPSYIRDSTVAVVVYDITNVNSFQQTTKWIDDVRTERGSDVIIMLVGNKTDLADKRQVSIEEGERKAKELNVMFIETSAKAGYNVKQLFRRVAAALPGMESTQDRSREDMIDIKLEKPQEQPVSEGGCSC
Sequence of Activin receptor type-2B (Q13705 whole entry): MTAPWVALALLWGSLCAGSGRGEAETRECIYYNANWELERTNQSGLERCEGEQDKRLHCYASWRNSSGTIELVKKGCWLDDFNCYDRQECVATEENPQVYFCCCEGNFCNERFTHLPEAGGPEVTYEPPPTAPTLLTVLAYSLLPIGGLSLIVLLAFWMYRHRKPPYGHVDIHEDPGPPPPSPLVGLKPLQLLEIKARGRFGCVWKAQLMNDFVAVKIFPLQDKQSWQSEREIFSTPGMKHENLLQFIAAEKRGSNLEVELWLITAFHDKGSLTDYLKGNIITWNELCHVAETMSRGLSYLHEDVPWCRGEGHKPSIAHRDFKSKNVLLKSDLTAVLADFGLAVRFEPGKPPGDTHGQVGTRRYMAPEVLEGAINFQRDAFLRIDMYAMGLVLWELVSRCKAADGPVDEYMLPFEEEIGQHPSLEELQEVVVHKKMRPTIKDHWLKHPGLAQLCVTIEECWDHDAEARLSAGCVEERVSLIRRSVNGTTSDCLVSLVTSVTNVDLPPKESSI
Sequence of Cyclin-dependent kinase 5 (Q00535 whole entry): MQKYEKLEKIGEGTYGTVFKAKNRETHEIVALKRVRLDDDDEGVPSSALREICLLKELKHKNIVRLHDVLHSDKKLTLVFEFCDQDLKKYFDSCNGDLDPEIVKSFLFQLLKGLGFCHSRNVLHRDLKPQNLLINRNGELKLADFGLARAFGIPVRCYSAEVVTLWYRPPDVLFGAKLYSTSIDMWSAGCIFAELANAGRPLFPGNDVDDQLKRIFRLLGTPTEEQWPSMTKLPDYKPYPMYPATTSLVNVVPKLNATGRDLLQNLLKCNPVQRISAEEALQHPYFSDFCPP
Sequence of Membrane-associated progesterone receptor component 1 (O00264 whole entry): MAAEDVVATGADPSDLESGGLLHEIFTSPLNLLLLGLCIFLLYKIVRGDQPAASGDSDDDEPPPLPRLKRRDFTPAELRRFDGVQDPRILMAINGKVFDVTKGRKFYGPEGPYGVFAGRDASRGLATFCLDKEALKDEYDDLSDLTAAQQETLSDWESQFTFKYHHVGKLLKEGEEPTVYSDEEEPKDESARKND

Row | Compound | Kd (Activin receptor type-2B) | Kd [1] | Kd [2] | Kd [3] | Kd [4] | Kd [5] | Kd [6] | Kd [7] | Kd [8] | Kd [9] | Kd [10] | Kd (GTP-binding protein 4) | Kd (LIM domain kinase 1) | Kd [11] | Kd [13] | Kd [14] | Kd [15] | Kd [16] | Kd [17] | Kd [12]
1 | C#Cc1cccc(Nc2ncnc3cc(OC)c(OCCCCCCC(=O)NO)cc23)c1 [CUDC-101] | > 30 µM (inactive) | > 30 µM (inactive) | > 30 µM (inactive) | > 30 µM (inactive) | > 30 µM (inactive) | > 30 µM (inactive) | > 30 µM (inactive) | > 30 µM (inactive) | > 30 µM (inactive) | > 30 µM (inactive) | > 30 µM (inactive) | > 30 µM (inactive) | > 30 µM (inactive) | > 30 µM (inactive) | > 30 µM (inactive) | > 30 µM (inactive) | > 30 µM (inactive) | > 30 µM (inactive) | > 30 µM (inactive) | > 30 µM (inactive)
2 | COc1ncc(-c2ccc3nccc(-c4ccnnc4)c3c2)cc1NS(=O)(=O)c1ccc(F)cc1F [OMIPALISIB] | > 30 µM (inactive) | > 30 µM (inactive) | > 30 µM (inactive) | > 30 µM (inactive) | > 30 µM (inactive) | > 30 µM (inactive) | > 30 µM (inactive) | > 30 µM (inactive) | > 30 µM (inactive) | > 30 µM (inactive) | > 30 µM (inactive) | > 30 µM (inactive) | > 30 µM (inactive) | > 30 µM (inactive) | > 30 µM (inactive) | > 30 µM (inactive) | > 30 µM (inactive) | > 30 µM (inactive) | > 30 µM (inactive) | > 30 µM (inactive)
3 | CCOc1cc2ncc(C#N)c(Nc3ccc(F)c(Cl)c3)c2cc1NC(=O)/C=C/CN(C)C [PELITINIB] | > 30 µM (inactive) | > 30 µM (inactive) | > 30 µM (inactive) | > 30 µM (inactive) | > 30 µM (inactive) | > 30 µM (inactive) | > 30 µM (inactive) | > 30 µM (inactive) | > 30 µM (inactive) | 3.88 µM (active) | > 30 µM (inactive) | > 30 µM (inactive) | > 30 µM (inactive) | 1.1 µM (active) | > 30 µM (inactive) | > 30 µM (inactive) | > 30 µM (inactive) | > 30 µM (inactive) | > 30 µM (inactive) | > 30 µM (inactive)
4 | CCCCCCCCCCCCCCCCCCOP(=O)([O-])OC1CC[N+](C)(C)CC1 [PERIFOSINE] | > 30 µM (inactive) | > 30 µM (inactive) | > 30 µM (inactive) | > 30 µM (inactive) | > 30 µM (inactive) | > 30 µM (inactive) | > 30 µM (inactive) | > 30 µM (inactive) | > 30 µM (inactive) | > 30 µM (inactive) | > 30 µM (inactive) | > 30 µM (inactive) | > 30 µM (inactive) | > 30 µM (inactive) | > 30 µM (inactive) | > 30 µM (inactive) | > 30 µM (inactive) | > 30 µM (inactive) | > 30 µM (inactive) | > 30 µM (inactive)
5 | CO[C@H]1C[C@@H]2CC[C@@H](C)[C@@](O)(O2)C(=O)C(=O)N2CCCC[C@H]2C(=O)O[C@H]([C@H](C)C[C@@H]2CC[C@@H](OC(=O)C(C)(CO)CO)[C@H](OC)C2)CC(=O)[C@H](C)/C=C(\C)[C@@H](O)[C@@H](OC)C(=O)[C@H](C)C[C@H](C)/C=C/C=C/C=C/1C [TEMSIROLIMUS] | > 30 µM (inactive) | > 30 µM (inactive) | > 30 µM (inactive) | > 30 µM (inactive) | > 30 µM (inactive) | > 30 µM (inactive) | > 30 µM (inactive) | > 30 µM (inactive) | > 30 µM (inactive) | > 30 µM (inactive) | > 30 µM (inactive) | > 30 µM (inactive) | > 30 µM (inactive) | > 30 µM (inactive) | > 30 µM (inactive) | > 30 µM (inactive) | > 30 µM (inactive) | > 30 µM (inactive) | > 30 µM (inactive) | > 30 µM (inactive)

Now from value to compound, other results behind:

Row | Kd (Activin receptor type-2B) | Kd [1] | Kd [2] | Kd [3] | Kd [4] | Kd [5] | Kd [6] | Kd [7] | Kd [8] | Kd [9] | Kd [10] | Kd (GTP-binding protein 4) | Kd (LIM domain kinase 1) | Kd [11] | Kd [13] | Kd [14] | Kd [15] | Kd [16] | Kd [17] | Compound | Kd [12]
6 | > 30 µM (inactive) | > 30 µM (inactive) | > 30 µM (inactive) | > 30 µM (inactive) | > 30 µM (inactive) | > 30 µM (inactive) | > 30 µM (inactive) | > 30 µM (inactive) | > 30 µM (inactive) | > 30 µM (inactive) | > 30 µM (inactive) | > 30 µM (inactive) | > 30 µM (inactive) | > 30 µM (inactive) | > 30 µM (inactive) | > 30 µM (inactive) | > 30 µM (inactive) | > 30 µM (inactive) | > 30 µM (inactive) | Cc1cnc(NC(=O)Nc2cc(Br)c(C)cc2OC[C@@H]2CNCCO2)cn1 [RABUSERTIB] | > 30 µM (inactive)
7 | > 30 µM (inactive) | > 30 µM (inactive) | > 30 µM (inactive) | > 30 µM (inactive) | > 30 µM (inactive) | > 30 µM (inactive) | > 30 µM (inactive) | > 30 µM (inactive) | > 30 µM (inactive) | > 30 µM (inactive) | > 30 µM (inactive) | > 30 µM (inactive) | > 30 µM (inactive) | > 30 µM (inactive) | > 30 µM (inactive) | > 30 µM (inactive) | > 30 µM (inactive) | > 30 µM (inactive) | > 30 µM (inactive) | O=c1[nH]ccc2cc(OC3CCNCC3)ccc12 [SAR-407899 FREE BASE] | > 30 µM (inactive)
8 | > 30 µM (inactive) | > 30 µM (inactive) | > 30 µM (inactive) | > 30 µM (inactive) | > 30 µM (inactive) | > 30 µM (inactive) | > 30 µM (inactive) | > 30 µM (inactive) | > 30 µM (inactive) | > 30 µM (inactive) | > 30 µM (inactive) | > 30 µM (inactive) | > 30 µM (inactive) | > 30 µM (inactive) | > 30 µM (inactive) | > 30 µM (inactive) | > 30 µM (inactive) | > 30 µM (inactive) | > 30 µM (inactive) | Cn1cc(-c2cnn3c(N)c(Br)c([C@@H]4CCCNC4)nc23)cn1 [SCH-900776] | > 30 µM (inactive)
